The values that follow come from PMC4037565 (Organic & biomolecular chemistry, 2013).

Series [1] can be described thus: Solubility under NMR/CD buffer conditions. It counts as physicochemical. The settings on record: 50 mM KD2PO4, pH 7, 20°C.
For series [2] the following is noted: read-out: Kd / binding constant for ATP; parent peptide; cited from earlier work.

pKd: −log10 of the molar value. Square brackets hold non-standard residues; d marks the D form. Peptide text beside a SMILES is read from it. Lys(N3) = [N-]=[N+]=NCCCC[C@H](N)C(=O)O; Orn = NCCC[C@H](N)C(=O)O; Pra = C#CC[C@H](N)C(=O)O

As for `C#CC[C@H](NC(=O)[C@H](CCCNC(=N)N)NC(C)=O)C(=O)N[C@H](C(=O)N[C@@H](CCCCN)C(=O)N[C@H](C(=O)N[C@@H](CC(N)=O)C(=O)NCC(=O)N[C@@H](CCCN)C(=O)N[C@@H](Cc1c[nH]c2ccccc12)C(=O)N[C@H](C(=O)N[C@@H](CCCCN=[N+]=[N-])C(=O)N[C@@H](CCC(N)=O)C(N)=O)[C@@H](C)CC)C(C)C)C(C)C` [NHB-rev-U] (Ac-R[Pra]VKVNG[Orn]WI[Lys(N3)]Q-NH2), in series [1], the “solubility (observation)” value is “not fully soluble and formed a gel-like substance”.
For Ac-RWVKVNGOWIKQ-NH2 [WKWK], the pKd in series [2] is 3.77.
